Assays:
COX-2 = target: T1, COX-2 (Mus musculus, UniProt Q05769); assay: Assay for the COX-2 inhibitory activity using RAW 264.7 cell line (PGE2, interferon γ/LPS induced); type: cell-based; settings: for COX-2 inhibitory activity in comparison with the reference (Valdecoxib): 10 nM, RAW 264.7, comparison in words; for inhibition at 0.01 µM: RAW264.7, 10 nM test compound, RAW 264.7 cells, interferon γ + LPS, 18 hours, PGE2, read-out: Cyclooxygenase (COX) Inhibition (%) COX-2 (10 nM); for selectivity (COX-2 over COX-1): judged from Table 1, in words
T1 construct: host or cells: RAW 264.7 cells, aspirin-pretreated, then induced with interferon gamma and LPS
T1 sequence (Q05769 18-604): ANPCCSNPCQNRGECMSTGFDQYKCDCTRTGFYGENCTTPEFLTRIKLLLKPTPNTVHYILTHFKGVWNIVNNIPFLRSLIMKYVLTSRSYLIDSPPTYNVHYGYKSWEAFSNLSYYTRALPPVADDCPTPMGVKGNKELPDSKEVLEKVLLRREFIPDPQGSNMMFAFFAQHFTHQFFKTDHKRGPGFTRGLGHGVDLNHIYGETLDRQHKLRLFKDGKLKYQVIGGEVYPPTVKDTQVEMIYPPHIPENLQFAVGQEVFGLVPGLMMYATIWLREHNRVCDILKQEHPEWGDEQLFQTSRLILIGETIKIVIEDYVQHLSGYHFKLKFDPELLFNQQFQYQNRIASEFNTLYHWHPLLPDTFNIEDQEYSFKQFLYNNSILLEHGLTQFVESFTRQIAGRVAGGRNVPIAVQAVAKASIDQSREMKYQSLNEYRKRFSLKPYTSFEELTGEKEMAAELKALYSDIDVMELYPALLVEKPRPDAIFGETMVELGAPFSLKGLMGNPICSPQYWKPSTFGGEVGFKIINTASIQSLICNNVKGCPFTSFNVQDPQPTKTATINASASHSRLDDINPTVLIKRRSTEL
Procedure: Each well was treated with 250 μM of aspirin and incubated at 37° C. for 2 hours. […] Then, each well was treated with interferon γ (100 units/ml) and Iipopolysaccharide (LPS, 100 ng/ml) and incubated for 18 hours. The culture media were transferred to another test tubes. The concentration of PGE2 was quantified by means of the EIA kit (Cayman Chemicals).
(§1) The percentages of the COX inhibition were calculated according to the following equation: % Inhibition=(concentration of PGE2 in test compound-untreated sample−concentration of PGE2 in test compound-treated sample)/(concentration of PGE2 in test compound-untreated sample)×100

COX-1 = target: T2, COX-1 (Homo sapiens, UniProt P23219); assay: Assay for the COX-1 inhibitory activity using U-937 (PGE2 inhibition); type: cell-based; settings: for inhibition at 1 µM: 1 μM test compound, U-937 human lymphoma cells, PGE2 inhibition vs DMSO, read-out: Cyclooxygenase (COX) Inhibition (%) COX-1 (1 μM); for COX-1 inhibitory activity in comparison with the reference (Valdecoxib): 1 μM, U-937, comparison in words
T2 construct: host or cells: U-937 human lymphoma cells
T2 sequence (P23219 24-599): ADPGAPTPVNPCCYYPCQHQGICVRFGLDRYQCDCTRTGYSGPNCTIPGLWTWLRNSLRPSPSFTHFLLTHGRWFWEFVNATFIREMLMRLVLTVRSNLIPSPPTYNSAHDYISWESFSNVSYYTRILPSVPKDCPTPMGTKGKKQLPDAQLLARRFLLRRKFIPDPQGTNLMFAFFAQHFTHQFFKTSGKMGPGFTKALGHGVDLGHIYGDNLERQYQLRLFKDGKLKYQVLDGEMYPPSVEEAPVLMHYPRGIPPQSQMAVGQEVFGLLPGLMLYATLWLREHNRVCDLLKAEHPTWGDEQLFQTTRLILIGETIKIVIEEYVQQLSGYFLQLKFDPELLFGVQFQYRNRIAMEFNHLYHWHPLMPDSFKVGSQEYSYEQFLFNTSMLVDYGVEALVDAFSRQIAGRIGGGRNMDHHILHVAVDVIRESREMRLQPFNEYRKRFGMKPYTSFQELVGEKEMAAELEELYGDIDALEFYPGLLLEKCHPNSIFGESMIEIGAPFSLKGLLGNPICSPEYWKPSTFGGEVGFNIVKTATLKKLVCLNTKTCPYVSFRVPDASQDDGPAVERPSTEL
Procedure: The collected cells were diluted with HBSS (×1, Hank's balanced salt solution) to a concentration of 1×10^6 cells/ml. 1 ml of the dilute cell solution was placed into each well of 12-well plates. 5 μl of 1 μM solution of a test compound in DMSO and 5 μl of DMSO as a control were added to the wells. The wells were incubated in CO2 incubator at 37° C. for 15 minutes. Separately, 10 mM stock solution of arachidonic acid in ethanol was diluted ten times in ethanol to prepare 1 mM solution of arachidonic acid. Arachidonic acid acts as a substrate. 10 μl of the 1 mM solution of arachidonic acid was added to each well and incubated at CO2 incubator at 37° C. for 30 minutes. The cell solution of each well was placed in a centrifuge test tube and centrifuged at 10,000 rpm at 4° C. for 5 minutes. The concentration of PGE2 in the collected cells and the supernatant was quantified by means of a monoclonal kit (Cayman Chemicals). The percentages of PGE2 inhibition in a group of the test compound-treated cells in relation to a group of the DMSO-treated cells were calculated. Based on the calculated values, the COX-1 inhibitory activities were evaluated.
as §1

[1] = tested on: carrageenan-induced paw edema; assay: Carrageenan-induced paw edema test in rats; type: in vivo; settings: oral administration, foot swelling 3 hours after carrageenan injection vs control
Procedure: 2. Carrageenan-induced Paw Edema Test in Rats
The day before the test date, rats were selected in each group so that the average body weight was as close as possible, and the rats were fasted by feed withdrawal prior to the test. At the test date, the rats were orally administered with the test compounds and a control material. After 1 hour, the volume (V0h) of a predetermined portion of the left hind foot of the rats was measured with a plethysmometer. 100 μl of 1% carrageenan solution was subcutaneously injected to the left hind foot of the rats using a syringe with 1 ml capacity. Three hours after the injection of the carrageenan, the volume (V3h) of the predetermined portion of the foot was again measured. The foot swelling variation […] in a group of test compound-treated rats was compared with that of a group of control material-treated rats. With the supposition of 0% inhibition by the control (control material-treated rats), the inhibition percentage of edema of each test compound was determined.

SMILES	COX-2 inhibitory activity in comparison with the reference (Valdecoxib) (COX-2)	inhibition at 0.01 µM (COX-2) [%]	selectivity (COX-2 over COX-1) (COX-2)	inhibition at 1 µM (COX-1) [%]	COX-1 inhibitory activity in comparison with the reference (Valdecoxib) (COX-1)	Inhibitory effect (% inhibition) [1] [% inhibition]
CS(=O)(=O)c1ccc(-n2nc(C(F)(F)F)nc2-c2ccc(Br)cc2)nc1 [Example 45, 2-[5-(4-bromophenyl)-3-trifluoromethyl-[1,2,4]triazol-1-yl]-5-methanesulfonyl pyridine]	remarkably enhanced	33.6	excellent selectivities	14.6	the same as or lower	21.6
COc1ccc(-c2nc(C(F)(F)F)nn2-c2ccc(S(C)(=O)=O)nc2)cc1 [Example 48, 2-methanesulfonyl-5-[5-(4-methoxyphenyl)-3-trifluoromethyl-[1,2,4]triazol-1-yl]pyridine]		5.63		28.8		
COc1ccc(-c2nc(C(F)(F)F)nn2-c2ccc(S(C)(=O)=O)nn2)cc1 [Example 50, 3-[5-(4-methoxyphenyl)-3-trifluoromethyl-[1.2.4]triazol-1-yl]-6-methanesulfonyl pyridazine]		4.32		10.6		
COc1ccc2c(c1)c(CC(=O)O)c(C)n2C(=O)c1ccc(Cl)cc1 [Indomethacine, reference compound]						40.1
CS(=O)(=O)c1ccc(-n2nc(C(F)(F)F)nc2-c2ccc(Br)cc2)cn1 [Example 47, 2-methanesulfonyl-5-[5-(4-bromophenyl)-3-trifluoromethyl-[1,2,4]triazol-1-yl]pyridine]		4.26		21.9		
COc1ccc(-c2nc(C(F)(F)F)nn2-c2ccc(S(C)(=O)=O)cc2)c(OC)c1 [Example 32, 5-(2,4-dimethoxyphenyl)-1-(4-methanesulfonylphenyl)-3-trifluoromethyl-1H-[1,2,4]triazole]		12.6		19.9		
Cc1ccc(-c2cc(C(F)(F)F)nn2-c2ccc(S(N)(=O)=O)cc2)cc1 [Celecoxib, reference compound]						23.9
CS(=O)(=O)c1ccc(-n2nc(C(F)(F)F)nc2/C=C/c2ccccc2)cc1 [Example 33, 5-styryl-1-(4-methanesulfonylphenyl)-3-trifluoromethyl-1H-[1,2,4]triazole]		19.2		19.2		
CS(=O)(=O)c1ccc(-n2nc(C(F)(F)F)nc2-c2ccc(Br)cc2)nn1 [Example 49, 3-[5-(4-bromophenyl)-3-trifluoromethyl-[1,2,4]triazol-1-yl]-6-methanesulfonyl pyridazine]		3.21		14.6		

Continued, in another order:

COX-2 inhibitory activity in comparison with the reference (Valdecoxib) (COX-2)	inhibition at 0.01 µM (COX-2) [%]	selectivity (COX-2 over COX-1) (COX-2)	inhibition at 1 µM (COX-1) [%]	COX-1 inhibitory activity in comparison with the reference (Valdecoxib) (COX-1)	SMILES	Inhibitory effect (% inhibition) [1] [% inhibition]
remarkably enhanced	28.6	excellent selectivities	10.1	the same as or lower	COc1ccc(-c2nc(C(F)(F)F)nn2-c2ccc(S(C)(=O)=O)cc2)cc1 [Example 28, 1-(4-methanesulfonylphenyl)-5-(4-methoxyphenyl)-3-trifluoromethyl-1H-[1,2,4]triazole]	23.3
	8.92		23.7		CS(=O)(=O)c1ccc(-n2nc(C(F)(F)F)nc2-c2ccc(C#N)cc2)cc1 [Example 37, 5-(4-cyanophenyl)-1-(4-methanesulfonylphenyl)-3-trifluoromethyl-1H-[1,2,4]triazole]	
remarkably enhanced	32.6	excellent selectivities	12.5	the same as or lower	COc1ccc(-c2nc(C(F)(F)F)nn2-c2ccc(S(C)(=O)=O)cc2)cc1Cl [Example 39, 5-(3-chloro-4-methoxyphenyl)-1-(4-methanesulfonylphenyl)-3-trifluoromethyl-1H-[1,2,4]triazole]	
	6.23		21.6		CC(C)(C)c1ccc(-c2nc(C(F)(F)F)nn2-c2ccc(S(C)(=O)=O)cc2)cc1 [Example 36, 5-(4-t-butylphenyl)-1-(4-methanesulfonylphenyl)-3-trifluoromethyl-1H-[1,2,4]triazole]	
	12.1		38		Cc1ccc(-c2nc(C(F)(F)F)nn2-c2ccc(S(N)(=O)=O)cc2)cc1 [Example 42, 4-(5-p-tolyl-3-trifluoromethyl-[1,2,4]triazol-1-yl)benzenesulfonamide]	
	10.5		38.8		CS(=O)(=O)c1ccc(-n2nc(C(F)(F)F)nc2-c2ccc(Cl)cc2)cc1 [Example 26, 5-(4-chlorophenyl)-1-(4-methanesulfonylphenyl)-3-trifluoromethyl-1H-[1,2,4]triazole]	
	7.32		18.6		CS(=O)(=O)c1ccc(-n2nc(C(F)(F)F)nc2-c2cccc(Cl)c2)cc1 [Example 30, 5-(3-chlorophenyl)-1-(4-methanesulfonylphenyl)-3-trifluoromethyl-1H-[1,2,4]triazole]	
	5.95		19.5		CS(=O)(=O)c1ccc(-n2nc(C(F)(F)F)nc2-c2ccc([N+](=O)[O-])cc2Cl)cc1 [Example 38, 5-(4-nitro-2-chlorophenyl)-1-(4-methanesulfonylphenyl)-3-trifluoromethyl-1H-[1,2,4]triazole]	
	6.23		16.7		CS(=O)(=O)c1ccc(-n2nc(C(F)(F)F)nc2-c2cccc(Br)c2)cc1 [Example 29, 5-(3-bromophenyl)-1-(4-methanesulfonylphenyl)-3-trifluoromethyl-1H-[1,2,4]triazole]	
	8.88		16.7		CS(=O)(=O)c1ccc(-n2nc(C(F)(F)F)nc2-c2ccncc2)cc1 [Example 41, 4-[2-(4-methanesulfonylphenyl)-5-trifluoromethyl-2H-[1,2,4]triazol-3-yl]pyridine]	
remarkably enhanced	33.7	excellent selectivities	18.7	the same as or lower	CS(=O)(=O)c1ccc(-n2nc(C(F)(F)F)nc2-c2ccc3c(c2)OCO3)cc1 [Example 40, 5-benzo[1,3]dioxol-5-yl-1-(4-methanesulfonylphenyl)-3-trifluoromethyl-1H-[1,2,4]triazole]	
	5.66		16.5		CS(=O)(=O)c1ccc(-n2nc(C(F)(F)F)nc2-c2cccc(C(F)(F)F)c2)cc1 [Example 31, 5-(3-trifluoromethylphenyl)-1-(4-methanesulfonylphenyl)-3-trifluoromethyl-1H-[1,2,4]triazole]	
	7.62		29.2		CS(=O)(=O)c1ccc(-n2nc(C(F)(F)F)nc2-c2ccccc2)cc1 [Example 25, 1-(4-methanesulfonylphenyl)-5-phenyl-3-trifluoromethyl-1H-[1,2,4]triazole]	
